Target: T1, human CCR10 (Homo sapiens, UniProt P46092)
T1 construct: expressed in transfected cells; host or cells: KJMGER8 cells (Namalwa cell-derived line), beta-estradiol-induced; hCCR10G16 cells
T1 sequence (P46092 1-362): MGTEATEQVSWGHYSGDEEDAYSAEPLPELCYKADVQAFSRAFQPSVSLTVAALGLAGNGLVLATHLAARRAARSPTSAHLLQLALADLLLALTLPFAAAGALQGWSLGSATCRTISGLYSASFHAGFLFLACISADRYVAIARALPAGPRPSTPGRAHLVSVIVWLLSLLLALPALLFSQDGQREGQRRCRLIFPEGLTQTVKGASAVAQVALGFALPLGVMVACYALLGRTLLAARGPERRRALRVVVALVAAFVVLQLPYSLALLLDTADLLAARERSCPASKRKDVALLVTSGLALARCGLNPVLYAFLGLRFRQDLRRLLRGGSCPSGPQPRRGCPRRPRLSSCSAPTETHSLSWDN
Assay: CCR10 antagonistic effect: calcium assay of human CCR10 (CTACK-induced increase of intracellular calcium in hCCR10G16 cells)
Assay type: cell-based
Conditions: at a concentration of not more than 1000 nmol/L; human CCR10-expressing hCCR10G16 cells, 300 nmol/L CTACK added; read-out: inhibition of increase in the calcium ion concentration
How it was run: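 Inhibition of CTACK-evoked calcium flux (max minus min Fluo-3 fluorescence over ~5 min, FDSS) was calculated against control in β-estradiol-induced human CCR10/Gα16 KJMGER8 cells, after 30 min compound preincubation at 37 °C; CTACK added from a 300 nmol/L solution.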

Compound	inhibition at up to 1 µM
Cc1c(S(=O)(=O)Nc2ccon2)ncc(C(=O)N2CCC(c3ccc(F)cc3)CC2)c1NCC1CCC1 [Compound 227, 4-(cyclobutylmethylamino)-5-[4-(4-fluorophenyl)piperidine-1-carbonyl]-N-(isoxazol-3-yl)-3-methylpyridine-2-sulfonamide]	≥ 50%
NS(=O)(=O)c1cc(Nc2ccccc2F)c(C(=O)N2CCC(c3ccc(F)cc3)CC2)cn1 [Compound 102, 5-[4-(4-fluorophenyl)piperidine-1-carbonyl]-4-(2-fluorophenylamino)pyridine-2-sulfonamide]	≥ 50%
Cc1cc(NS(=O)(=O)c2ncc(C(=O)N3CCC(c4ccc(F)cc4)CC3)c(Nc3ccc(F)cc3C)c2C)sn1 [Compound 266, 4-(4-fluoro-2-methylphenylamino)-5-[4-(4-fluorophenyl)piperidine-1-carbonyl]-3-methyl-N-(3-methylisothiazol-5-yl)pyridine-2-sulfonamide]	≥ 50%
Cc1cc(O)c(Cl)cc1Nc1cc(S(N)(=O)=O)ncc1C(=O)N1CCC(c2ccc(F)cc2)CC1 [Compound 105, 4-(5-chloro-4-hydroxy-2-methylphenylamino)-5-[4-(4-fluorophenyl)piperidine-1-carbonyl]pyridine-2-sulfonamide]	≥ 50%
NS(=O)(=O)c1ncc(C(=O)N2CCC(c3ccc(F)cc3)CC2)c(NC2CCc3ccccc32)c1Cl (centres unmarked) [Compound 237, 3-chloro-4-(2,3-dihydro-1H-inden-1-ylamino)-5-[4-(4-fluorophenyl)piperidine-1-carbonyl]pyridine-2-sulfonamide]	≥ 50%
Cc1cc(F)ccc1Nc1cc(S(=O)(=O)NCC(=O)N2CCOCC2)ncc1C(=O)N1CCC(c2ccc(F)cc2)CC1 [Compound 130, 4-(4-fluoro-2-methylphenylamino)-5-[4-(4-fluorophenyl)piperidine-1-carbonyl]-N-(2-morpholino-2-oxoethyl)pyridine-2-sulfonamide]	≥ 50%
NS(=O)(=O)c1cc(Nc2ccccc2)c(C(=O)N2CCC(c3ccc(F)cc3)CC2)cn1 [Compound 95, 5-[4-(4-fluorophenyl)piperidine-1-carbonyl]-4-(phenylamino)pyridine-2-sulfonamide]	≥ 50%
Cc1cc(Nc2cc(S(N)(=O)=O)ncc2C(=O)N2CCC(c3ccc(F)cc3)CC2)c(F)cc1Cl [Compound 67, 4-(4-chloro-2-fluoro-5-methylphenylamino)-5-[4-(4-fluorophenyl)piperidine-1-carbonyl]pyridine-2-sulfonamide]	≥ 50%
Cc1ccc(C)c(Nc2cc(S(N)(=O)=O)ncc2C(=O)N2CCC(c3ccc(F)cc3)CC2)c1 [Compound 53, 4-(2,5-dimethylphenylamino)-5-[4-(4-fluorophenyl)piperidine-1-carbonyl]pyridine-2-sulfonamide]	≥ 50%
CCCNC(=O)NS(=O)(=O)c1cc(Nc2cc(C)ccc2Cl)c(C(=O)N2CCC(c3ccc(F)cc3)CC2)cn1 [Compound 162, 4-(2-chloro-5-methylphenylamino)-5-[4-(4-fluorophenyl)piperidine-1-carbonyl]-N-(propylcarbamoyl)pyridine-2-sulfonamide]	≥ 50%
Cc1c(F)cccc1Nc1cc(S(N)(=O)=O)ncc1C(=O)N1CCC(c2ccc(F)cc2)CC1 [Compound 60, 4-(3-fluoro-2-methylphenylamino)-5-[4-(4-fluorophenyl)piperidine-1-carbonyl]pyridine-2-sulfonamide]	≥ 50%
Cc1c(S(=O)(=O)Nc2ccon2)ncc(C(=O)N2CCC(c3ccc(F)cc3)CC2)c1Nc1cc(F)ccc1F [Compound 252, 4-(2,5-difluorophenylamino)-5-[4-(4-fluorophenyl)piperidine-1-carbonyl]-N-(isoxazol-3-yl)-3-methylpyridine-2-sulfonamide]	≥ 50%
Cc1cnc(CNS(=O)(=O)c2cc(Nc3ccc(F)cc3C)c(C(=O)N3CCC(c4ccc(F)cc4)CC3)cn2)cn1 [Compound 134, 4-(4-fluoro-2-methylphenylamino)-5-[4-(4-fluorophenyl)piperidine-1-carbonyl]-N-[(5-methylpyrazin-2-yl)methyl]pyridine-2-sulfonamide]	≥ 50%
Cc1ccc(Nc2c(C(=O)N3CCC(c4ccc(F)cc4)CC3)cnc(S(N)(=O)=O)c2Cl)cc1Cl [Compound 181, 3-chloro-4-(3-chloro-4-methylphenylamino)-5-[4-(4-fluorophenyl)piperidine-1-carbonyl]pyridine-2-sulfonamide]	≥ 50%
Cc1cc(Cl)ccc1Nc1c(C(=O)N2CCC(c3ccc(F)cc3)CC2)cnc(S(N)(=O)=O)c1C [Compound 196, 4-(4-chloro-2-methylphenylamino)-5-[4-(4-fluorophenyl)piperidine-1-carbonyl]-3-methylpyridine-2-sulfonamide]	≥ 50%
Cc1cccc(F)c1Nc1cc(S(N)(=O)=O)ncc1C(=O)N1CCC(c2ccc(F)cc2)CC1 [Compound 72, 4-(2-fluoro-6-methylphenylamino)-5-[4-(4-fluorophenyl)piperidine-1-carbonyl]pyridine-2-sulfonamide]	≥ 50%
NS(=O)(=O)c1ncc(C(=O)N2CCC(c3ccc(F)cc3)CC2)c(N[C@H]2C[C@H]3CC[C@@H]2C3)c1Cl [Compound 236, 4-((1R,2S,4S)-bicyclo[2.2.1]heptan-2-ylamino)-3-chloro-5-[4-(4-fluorophenyl)piperidine-1-carbonyl]pyridine-2-sulfonamide]	≥ 50%
COC1(c2ccc(F)cc2)CCN(C(=O)c2cnc(S(N)(=O)=O)c(Cl)c2Nc2cccc(C)c2)CC1 [Compound 208, 3-chloro-5-[4-(4-fluorophenyl)-4-methoxypiperidine-1-carbonyl]-4-(m-tolylamino)pyridine-2-sulfonamide]	≥ 50%
Cc1ccc(Cl)cc1Nc1c(C(=O)N2CC(c3ccc(F)cc3)C2)cnc(S(N)(=O)=O)c1Cl [Compound 314, 3-chloro-4-(5-chloro-2-methylphenylamino)-5-[3-(4-fluorophenyl)azetidine-1-carbonyl]pyridine-2-sulfonamide]	≥ 50%
Cc1cc(NS(=O)(=O)c2ncc(C(=O)N3CCC(c4ccc(F)cc4)CC3)c(Nc3ccc(F)cc3)c2C)sn1 [Compound 299, 5-[4-(4-fluorophenyl)piperidine-1-carbonyl]-4-(4-fluorophenylamino)-3-methyl-N-(3-methylisothiazol-5-yl)pyridine-2-sulfonamide]	≥ 50%
Cc1cc(C#N)c(Nc2c(C(=O)N3CCC(c4ccc(F)cc4)CC3)cnc(S(N)(=O)=O)c2Cl)cc1C [Compound 320, 3-chloro-4-(2-cyano-4,5-dimethylphenylamino)-5-[4-(4-fluorophenyl)piperidine-1-carbonyl]pyridine-2-sulfonamide]	≥ 50%
COC1(c2ccc(F)cc2)CCN(C(=O)c2cnc(S(N)(=O)=O)c(C)c2NCc2ccccc2)CC1 [Compound 262, 4-(benzylamino)-5-[4-(4-fluorophenyl)-4-methoxypiperidine-1-carbonyl]-3-methylpyridine-2-sulfonamide]	≥ 50%
Cc1c(S(=O)(=O)Nc2ccon2)ncc(C(=O)N2CCC(c3ccc(F)cc3)CC2)c1Nc1cc(F)c(F)cc1F [Compound 246, 5-[4-(4-fluorophenyl)piperidine-1-carbonyl]-N-(isoxazol-3-yl)-3-methyl-4-(2,4,5-trifluorophenylamino)pyridine-2-sulfonamide]	≥ 50%
